The target of assay [1] is T1, NHE3 (Homo sapiens, UniProt P48764).
T1 construct: host or cells: cells, not specified
T1 sequence (P48764 26-834): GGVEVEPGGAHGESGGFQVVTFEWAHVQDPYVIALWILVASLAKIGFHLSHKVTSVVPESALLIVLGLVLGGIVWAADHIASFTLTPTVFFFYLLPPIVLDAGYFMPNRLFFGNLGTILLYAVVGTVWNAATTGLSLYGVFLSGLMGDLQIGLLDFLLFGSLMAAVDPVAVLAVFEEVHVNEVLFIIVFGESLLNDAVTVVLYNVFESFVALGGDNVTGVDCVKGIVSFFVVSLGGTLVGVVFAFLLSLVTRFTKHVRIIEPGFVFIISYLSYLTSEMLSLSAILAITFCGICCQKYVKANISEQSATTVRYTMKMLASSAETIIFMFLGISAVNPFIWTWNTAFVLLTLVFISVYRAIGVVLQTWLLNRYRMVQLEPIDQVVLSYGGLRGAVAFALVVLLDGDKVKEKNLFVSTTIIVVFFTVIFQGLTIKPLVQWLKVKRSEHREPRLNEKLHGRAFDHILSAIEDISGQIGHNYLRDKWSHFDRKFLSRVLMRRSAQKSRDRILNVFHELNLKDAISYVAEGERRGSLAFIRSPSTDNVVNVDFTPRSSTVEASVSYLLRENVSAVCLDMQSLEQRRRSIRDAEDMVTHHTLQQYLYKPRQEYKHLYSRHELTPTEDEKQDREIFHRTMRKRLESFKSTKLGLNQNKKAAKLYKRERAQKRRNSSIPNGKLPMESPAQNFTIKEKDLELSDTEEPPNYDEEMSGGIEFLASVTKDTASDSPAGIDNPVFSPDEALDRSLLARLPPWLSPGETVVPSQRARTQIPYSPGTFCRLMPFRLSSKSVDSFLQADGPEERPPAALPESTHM
As to conditions: indirect mechanism; cited from earlier work.

The target of assay [2] is T2, NHE2 (Homo sapiens, UniProt Q9UBY0).
T2 sequence (Q9UBY0 1-812): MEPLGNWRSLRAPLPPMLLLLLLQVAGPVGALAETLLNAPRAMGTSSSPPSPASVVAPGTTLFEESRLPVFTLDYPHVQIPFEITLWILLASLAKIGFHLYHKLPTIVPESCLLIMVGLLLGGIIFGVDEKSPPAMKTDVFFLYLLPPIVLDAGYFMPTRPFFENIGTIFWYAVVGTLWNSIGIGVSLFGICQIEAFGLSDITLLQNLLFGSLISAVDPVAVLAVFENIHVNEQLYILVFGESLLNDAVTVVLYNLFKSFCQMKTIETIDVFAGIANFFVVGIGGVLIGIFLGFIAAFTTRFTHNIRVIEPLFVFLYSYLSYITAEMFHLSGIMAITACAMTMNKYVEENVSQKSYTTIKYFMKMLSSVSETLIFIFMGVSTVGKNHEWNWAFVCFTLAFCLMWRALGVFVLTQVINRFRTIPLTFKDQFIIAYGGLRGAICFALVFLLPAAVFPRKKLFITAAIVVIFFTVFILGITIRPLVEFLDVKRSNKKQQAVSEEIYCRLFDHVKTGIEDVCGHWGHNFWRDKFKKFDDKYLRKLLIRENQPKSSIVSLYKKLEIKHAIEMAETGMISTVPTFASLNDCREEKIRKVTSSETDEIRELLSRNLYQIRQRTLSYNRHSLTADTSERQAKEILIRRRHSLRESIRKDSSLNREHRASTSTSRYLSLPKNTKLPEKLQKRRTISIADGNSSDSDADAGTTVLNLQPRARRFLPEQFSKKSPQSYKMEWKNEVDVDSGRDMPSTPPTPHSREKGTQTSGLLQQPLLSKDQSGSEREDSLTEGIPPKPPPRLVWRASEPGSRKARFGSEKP
In words: Tiamenidine inhibitory action on NHE subtypes: NHE2. As to conditions: therapeutically utilizable concentration range. In kind it is cell-based. The source says: (§1) Compounds which are similar to clonidine but have a thiophene instead of the phenyl ring are disclosed in DE1941761. The structures of formula I disclosed and claimed herein differ from existing compounds by the fusing of a thieno-substituent to the imidazole moiety of the formula I or II. This distinction allows the above-described clonidine-like undesired cardiovascular effects mediated by alpha-adrenoreceptor action to be eliminated. […] The application WO03053434 proposes NHE3 inhibitors of the imidazoline type, the patent application WO 03101984 of the thiophene type and the application DE10304374 of the imidazole type.

Assay [3] concerns the target NHE1 (Homo sapiens, UniProt P19634). Briefly: Tiamenidine inhibitory action on NHE subtypes: NHE1. In kind it is cell-based. The note with it: therapeutically utilizable concentration range.
From the text: as §1

Assay [4] concerns the target T3, NHE5 (Homo sapiens, UniProt Q14940).
T3 sequence (Q14940 1-896): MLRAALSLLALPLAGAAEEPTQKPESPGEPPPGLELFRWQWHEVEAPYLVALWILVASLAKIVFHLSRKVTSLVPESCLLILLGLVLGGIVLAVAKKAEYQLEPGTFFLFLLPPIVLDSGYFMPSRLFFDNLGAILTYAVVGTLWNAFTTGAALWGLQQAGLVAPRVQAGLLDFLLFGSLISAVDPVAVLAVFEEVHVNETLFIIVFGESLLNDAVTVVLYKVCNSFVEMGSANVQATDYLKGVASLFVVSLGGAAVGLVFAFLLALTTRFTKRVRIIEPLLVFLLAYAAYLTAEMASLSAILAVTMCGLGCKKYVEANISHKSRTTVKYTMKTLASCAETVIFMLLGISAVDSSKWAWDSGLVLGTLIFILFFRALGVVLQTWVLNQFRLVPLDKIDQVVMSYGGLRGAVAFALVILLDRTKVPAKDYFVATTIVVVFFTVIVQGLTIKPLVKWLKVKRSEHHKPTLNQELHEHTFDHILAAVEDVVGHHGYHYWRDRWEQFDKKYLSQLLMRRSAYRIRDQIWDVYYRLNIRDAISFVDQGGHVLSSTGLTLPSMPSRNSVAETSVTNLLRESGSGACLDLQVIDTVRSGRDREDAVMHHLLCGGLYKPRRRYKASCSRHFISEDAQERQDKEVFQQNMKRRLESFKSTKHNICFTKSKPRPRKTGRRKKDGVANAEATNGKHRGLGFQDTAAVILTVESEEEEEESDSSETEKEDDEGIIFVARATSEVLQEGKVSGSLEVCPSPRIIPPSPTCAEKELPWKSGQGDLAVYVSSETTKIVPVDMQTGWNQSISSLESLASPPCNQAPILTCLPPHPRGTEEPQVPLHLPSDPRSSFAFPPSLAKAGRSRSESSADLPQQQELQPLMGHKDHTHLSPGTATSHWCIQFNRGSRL
In words: Tiamenidine inhibitory action on NHE subtypes: NHE5. In kind it is cell-based. As to conditions: therapeutically utilizable concentration range.
From the text: as §1

Assay [5] concerns the target T1, NHE3. Briefly: Tiamenidine inhibitory action on NHE subtypes: NHE3. In kind it is cell-based. As to conditions: therapeutically utilizable concentration range.
From the text: as §1

Assay [6] addresses NHE3 of the rat (Rattus norvegicus, UniProt P26433). As to conditions: read-out: half-maximum inhibitory concentration (IC50); cited from earlier work.

Sequence of NHE1 (P19634 whole entry, species assumed): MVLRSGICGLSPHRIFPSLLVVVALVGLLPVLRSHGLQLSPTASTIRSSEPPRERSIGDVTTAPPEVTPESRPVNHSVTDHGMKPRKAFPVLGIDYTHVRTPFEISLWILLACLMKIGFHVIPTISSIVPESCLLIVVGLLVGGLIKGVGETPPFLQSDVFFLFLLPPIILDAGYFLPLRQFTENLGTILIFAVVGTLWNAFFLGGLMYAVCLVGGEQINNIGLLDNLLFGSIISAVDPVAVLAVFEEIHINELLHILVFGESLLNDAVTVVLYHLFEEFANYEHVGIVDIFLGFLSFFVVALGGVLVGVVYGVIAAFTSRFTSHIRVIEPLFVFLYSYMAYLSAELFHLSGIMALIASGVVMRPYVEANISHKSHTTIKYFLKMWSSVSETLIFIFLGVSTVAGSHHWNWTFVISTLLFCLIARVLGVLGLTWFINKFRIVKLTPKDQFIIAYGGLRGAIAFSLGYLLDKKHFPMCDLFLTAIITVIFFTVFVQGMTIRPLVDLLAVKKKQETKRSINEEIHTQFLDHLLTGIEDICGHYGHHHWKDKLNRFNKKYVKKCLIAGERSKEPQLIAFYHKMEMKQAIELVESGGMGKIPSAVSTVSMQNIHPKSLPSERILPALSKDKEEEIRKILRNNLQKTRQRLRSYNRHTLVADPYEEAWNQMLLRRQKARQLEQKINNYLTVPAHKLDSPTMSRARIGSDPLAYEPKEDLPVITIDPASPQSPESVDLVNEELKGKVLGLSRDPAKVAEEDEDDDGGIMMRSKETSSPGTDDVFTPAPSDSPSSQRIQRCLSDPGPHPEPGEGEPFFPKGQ
Sequence of NHE3 of the rat (P26433 29-831): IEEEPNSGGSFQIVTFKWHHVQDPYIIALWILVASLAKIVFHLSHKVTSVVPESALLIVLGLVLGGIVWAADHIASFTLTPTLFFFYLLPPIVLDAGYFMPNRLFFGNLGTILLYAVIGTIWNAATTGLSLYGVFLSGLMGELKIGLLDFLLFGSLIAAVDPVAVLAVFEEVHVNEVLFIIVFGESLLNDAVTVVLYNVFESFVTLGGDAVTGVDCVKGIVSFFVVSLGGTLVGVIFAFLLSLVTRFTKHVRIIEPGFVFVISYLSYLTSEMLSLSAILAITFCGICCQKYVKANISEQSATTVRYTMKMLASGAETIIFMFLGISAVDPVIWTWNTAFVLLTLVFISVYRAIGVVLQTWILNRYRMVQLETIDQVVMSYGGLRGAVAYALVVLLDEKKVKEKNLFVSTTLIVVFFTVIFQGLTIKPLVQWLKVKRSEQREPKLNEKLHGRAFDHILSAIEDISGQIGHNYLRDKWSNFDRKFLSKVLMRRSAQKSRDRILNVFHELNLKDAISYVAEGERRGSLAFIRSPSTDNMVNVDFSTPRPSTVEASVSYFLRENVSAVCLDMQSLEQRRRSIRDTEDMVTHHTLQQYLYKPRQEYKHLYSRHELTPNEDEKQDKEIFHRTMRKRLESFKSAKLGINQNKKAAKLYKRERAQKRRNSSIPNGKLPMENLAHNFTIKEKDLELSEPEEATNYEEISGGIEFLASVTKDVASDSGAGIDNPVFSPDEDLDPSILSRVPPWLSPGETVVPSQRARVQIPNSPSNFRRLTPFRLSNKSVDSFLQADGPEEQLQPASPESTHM

On to `CC(C)[C@@H](CC[C@@H](C)[C@H]1CC[C@H]2[C@@H]3[C@H](O)C[C@H]4C[C@@H](NCCCNCCCCN)CC[C@]4(C)[C@H]3CC[C@]12C)OS(=O)(=O)O` [squalamine], for which, in assay [1], the “time to maximum strength of action” value is reported as “after one hour”.

As for `Cc1csc(Cl)c1NC1=NCCN1` [tiamenidine], the “inhibitory action on NHE2” value in assay [2] was “no relevant inhibitory actions”. Also, the “inhibitory action on NHE1” value in assay [3] is recorded as “no relevant inhibitory actions”. In addition, the “inhibitory action on NHE5” value in assay [4] was “no relevant inhibitory actions”. In assay [5], the “inhibitory action on NHE3” value is reported as “no relevant inhibitory actions”.

Turning to `Clc1cccc(Cl)c1N=C1NCCN1` [Clonidine], the IC50 in assay [6] is 620 µM.

(Values after patent US7790742B2, “Substituted 4-phenyltetrahydroisoquinolines, pharmaceutical compositions thereof, methods for their preparation and therapeutic use” (Sanofi-Aventis Deutschland GmbH, priority 2004, dated 2010).)
